What was measured:
[1] = target: mouse TAAR1 (Mus musculus (Mouse), UniProt Q923Y8); assay: Radioligand binding assay on mouse TAAR1; settings: mouse TAAR1, HEK-293 membranes; first value of the mouse/rat pair
Method: (§1) Construction of TAAR Expression Plasmids and Stably Transfected Cell Lines
(§2) For the construction of expression plasmids the coding sequences of human, rat and mouse TAAR 1 were amplified from genomic DNA essentially as described by Lindemann et al..
(§3) The Expand High Fidelity PCR System (Roche Diagnostics) was used with 1.5 mM Mg^2+ and purified PCR products were cloned into pCR2.1-TOPO cloning vector (Invitrogen) following the instructions of the manufacturer. PCR products were subcloned into the pIRESneo2 vector (BD Clontech, Palo Alto, Calif.), and expression vectors were sequence verified before introduction in cell lines.
(§4) HEK293 cells (ATCC # CRL-1573) were cultured essentially as described by Lindemann et al. (2005). For the generation of stably transfected cell lines HEK293 cells were transfected with the pIRESneo2 expression plasmids containing the TAAR coding sequences (described above) with Lipofectamine 2000 (Invitrogen) according to the instructions of the manufacturer, and 24 hrs post transfection the culture medium was supplemented with 1 mg/ml G418 (Sigma, Buchs, Switzerland). After a culture period of about 10 d clones were isolated, expanded and tested for responsiveness to trace amines (all compounds purchased from Sigma) with the cAMP Biotrak Enzyme immunoassay (EIA) System (Amersham) following the non-acetylation EIA procedure provided by the manufacturer.
Radioligand Binding Assay on Mouse TAAR1
(§5) Membrane Preparation and Radioligand Binding.
(§6) HEK-293 cells stably expressing mouse TAAR1 were maintained at 37° C. and 5% CO2 in DMEM high glucose medium, containing fetal calf serum (10%, heat inactivated for 30 min at 56° C.), penicillin/streptomycin (1%), and 375 μg/ml geneticin (Gibco). Cells were released from culture flasks using trypsin/EDTA, harvested, washed twice with ice-cold PBS (without Ca^2+ and Mg^2+), pelleted at 1,000 rpm for 5 min at 4° C., frozen and stored at −80° C. Frozen pellets were suspended in 20 ml HEPES-NaOH (20 mM, pH 7.4) containing 10 mM EDTA and homogenized with a Polytron (PT 6000, Kinematica) at 14,000 rpm for 20 s. The homogenate was centrifuged at 48,000×g for 30 min at 4° C. Subsequently, the supernatant was removed and discarded, and the pellet resuspended in 20 ml HEPES-NaOH (20 mM, pH 7.4) containing 0.1 mM EDTA using the Polytron (20 s at 14,000 rpm). This procedure was repeated and the final pellet resuspended in HEPES-NaOH containing 0.1 mM EDTA and homogenized using the Polytron. Typically, aliquots of 2 ml membrane portions were stored at −80° C. With each new membrane batch the dissociation constant (Kd) was determined via a saturation curve. […] Nonspecific binding was defined as the amount of ^3[H]-(S)-4-[(ethyl-phenyl-amino)-methyl]-4,5-dihydro-oxazol-2-ylamine bound in the presence of 10 μM unlabeled ligand. All compounds were tested at a broad range of concentrations (10 pM to 10 μM) in duplicates. […] The 96 deep well plates were incubated for 1 hr at 4° C. Incubations were terminated by rapid filtration through Unifilter-96 plates (Packard Instrument Company) and glass filters GF/C (Perkin Elmer) presoaked for 1 hr in polyethylenimine (0.3%) and washed 3 times with 1 ml of cold binding buffer. After addition of 45 μl of Microscint 40 (PerkinElmer) the Unifilter-96 plate was sealed and after 1 hr the radioactivity counted using a TopCount Microplate Scintillation Counter (Packard Instrument Company).

[2] = target: rat TAAR1 (Rattus norvegicus (Rat), UniProt Q923Y9); assay: Radioligand binding assay on rat TAAR1; settings: rat TAAR1, HEK-293 membranes; second value of the mouse/rat pair
rat TAAR1, sequence (Q923Y9 whole entry): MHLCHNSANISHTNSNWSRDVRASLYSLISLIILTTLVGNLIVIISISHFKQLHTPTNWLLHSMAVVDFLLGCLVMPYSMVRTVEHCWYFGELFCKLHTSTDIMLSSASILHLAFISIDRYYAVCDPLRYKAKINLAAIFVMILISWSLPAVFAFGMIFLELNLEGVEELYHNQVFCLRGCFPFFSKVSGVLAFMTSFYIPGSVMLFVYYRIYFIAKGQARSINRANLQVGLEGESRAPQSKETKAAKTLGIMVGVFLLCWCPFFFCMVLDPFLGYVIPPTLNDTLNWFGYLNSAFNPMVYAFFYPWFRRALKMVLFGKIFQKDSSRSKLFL
Method: as §1, §2, §3, §4
Radioligand Binding Assay on Rat TAAR1
as §5
as §6, with “rat” for “mouse”, “[H]-(S)-4-[(ethyl-phenyl-amino)-methyl]-4,5-dihydro-oxazol-2-ylamine” for “^3[H]-(S)-4-[(ethyl-phenyl-amino)-methyl]-4,5-dihydro-oxazol-2-ylamine”, “[…]” for “pM”

mouse TAAR1, sequence (Q923Y8 whole entry): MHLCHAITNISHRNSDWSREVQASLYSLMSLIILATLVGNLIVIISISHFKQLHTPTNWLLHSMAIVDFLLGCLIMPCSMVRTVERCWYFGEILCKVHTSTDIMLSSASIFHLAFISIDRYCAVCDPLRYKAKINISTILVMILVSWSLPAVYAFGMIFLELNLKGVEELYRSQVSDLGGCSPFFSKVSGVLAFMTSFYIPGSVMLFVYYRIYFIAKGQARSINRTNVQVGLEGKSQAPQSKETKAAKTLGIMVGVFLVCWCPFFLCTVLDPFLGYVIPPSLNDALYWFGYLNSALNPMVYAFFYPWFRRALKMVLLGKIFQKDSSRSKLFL

Structure (SMILES) | Ki [1] [µM] | Ki [2] [µM]
O=C(Nc1ccc2c(c1)CCN1CCNC[C@@H]21)c1ccnc(C(F)(F)F)c1 [Example 1, N-[(11bR)-2,3,4,6,7,11b-hexahydro-1H-pyrazino[2,1-a]isoquinolin-9-yl]-2-(trifluoromethyl)pyridine-4-carboxamide] | 0.121 | 0.199
O=C(Nc1ccc2c(c1)CCN1CCNC[C@@H]21)c1ccc(Cl)cc1 [Example 3, N-[(11bR)-2,3,4,6,7,11b-hexahydro-1H-pyrazino[2,1-a]isoquinolin-9-yl]-4-chloro-benzamide] | 0.0096 | 0.0562
FC(F)(F)c1nccc(Nc2ccc3c(c2)CCN2CCNC[C@@H]32)n1 [Example 5, (11bR)-N-[2-(trifluoromethyl)pyrimidin-4-yl]-2,3,4,6,7,11b-hexahydro-1H-pyrazino[2,1-a]isoquinolin-9-amine] | 0.0354 | 0.0151
FC(F)(F)c1cnc(Nc2ccc3c(c2)CCN2CCNC[C@@H]32)nc1 [Example 6, (11bR)-N-[5-(trifluoromethyl)pyrimidin-2-yl]-2,3,4,6,7,11b-hexahydro-1H-pyrazino[2,1-a]isoquinolin-9-amine] | 0.0374 | 0.0195
FC(F)(F)c1cnc(Nc2ccc3c(c2)CCN2CCNC[C@@H]32)cn1 [Example 7, (11bR)-N-[5-(trifluoromethyl)pyrazin-2-yl]-2,3,4,6,7,11b-hexahydro-1H-pyrazino[2,1-a]isoquinolin-9-amine] | 0.0329 | 0.0356
O=C(Nc1ccc2c(c1)CCN1CCNC[C@H]21)c1ccc(Cl)cc1 [Example 8, N-[(11bS)-2,3,4,6,7,11b-hexahydro-1H-pyrazino[2,1-a]isoquinolin-9-yl]-4-chloro-benzamide] | 0.0075 | 0.0063
O=C(Nc1ccc2c(c1)CCN1CCNC[C@H]21)c1ccnc(C(F)(F)F)c1 [Example 9, N-[(11bS)-2,3,4,6,7,11b-hexahydro-1H-pyrazino[2,1-a]isoquinolin-9-yl]-2-(trifluoromethyl)pyridine-4-carboxamide] | 0.0144 | 0.0142
O=C(Nc1ccc2c(c1)CCN1CCNC[C@H]21)c1cnc(C(F)(F)F)nc1 [Example 10, N-[(11bS)-2,3,4,6,7,11b-hexahydro-1H-pyrazino[2,1-a]isoquinolin-9-yl]-2-(trifluoromethyl)pyrimidine-5-carboxamide] | 0.189 | 0.191
FC(F)(F)c1nccc(Nc2ccc3c(c2)CCN2CCNC[C@H]32)n1 [Example 11, (11bS)-N-[2-(trifluoromethyl)pyrimidin-4-yl]-2,3,4,6,7,11b-hexahydro-1H-pyrazino[2,1-a]isoquinolin-9-amine] | 1.18 | 0.904
FC(F)(F)c1cnc(Nc2ccc3c(c2)CCN2CCNC[C@H]32)cn1 [Example 12, (11bS)-N-[5-(trifluoromethyl)pyrazin-2-yl]-2,3,4,6,7,11b-hexahydro-1H-pyrazino[2,1-a]isoquinolin-9-amine] | 0.219 | 1.98
FC(F)(F)COc1cnc(Nc2ccc3c(c2)CCN2CCNC[C@@H]32)nc1 [Example 13, (R)-N-(5-(2,2,2-trifluoroethoxy)pyrimidin-2-yl)-2,3,4,6,7,11b-hexahydro-1H-pyrazino[2,1-a]isoquinolin-9-amine] | 0.0078 | 0.0119
c1cc2c(cc1Nc1ncc(C3CC3)cn1)CCN1CCNC[C@@H]21 [Example 14, (11bR)-N-(5-cyclopropylpyrimidin-2-yl)-2,3,4,6,7,11b-hexahydro-1H-pyrazino[2,1-a]isoquinolin-9-amine] | 0.0066 | 0.0192
c1ccc2c(c1)CCN1CCNC[C@@H]21 [Example 15, (11bR)-2,3,4,6,7,11b-hexahydro-1H-pyrazino[2,1-a]isoquinoline] | 0.0605 | 0.248
O=C(Nc1cc2c(cc1F)[C@@H]1CNCCN1CC2)c1ccnc(C(F)(F)F)c1 [Example 16, N-[(11bR)-10-fluoro-2,3,4,6,7,11b-hexahydro-1H-pyrazino[2,1-a]isoquinolin-9-yl]-2-(trifluoromethyl)pyridine-4-carboxamide] | 0.175 | 1.5
Fc1cc2c(cc1Nc1ncc(C(F)(F)F)cn1)CCN1CCNC[C@@H]21 [Example 17, (11bR)-10-fluoro-N-[5-(trifluoromethyl)pyrimidin-2-yl]-2,3,4,6,7,11b-hexahydro-1H-pyrazino[2,1-a]isoquinolin-9-amine] | 0.261 | 0.623
COc1cc(Nc2ccc3c(c2)CCN2CCNC[C@@H]32)nc(C(F)(F)F)n1 [Example 18, (11bR)-N-[6-methoxy-2-(trifluoromethyl)pyrimidin-4-yl]-2,3,4,6,7,11b-hexahydro-1H-pyrazino[2,1-a]isoquinolin-9-amine] | 0.0439 | 0.0092
CN(C)c1cc(Nc2ccc3c(c2)CCN2CCNC[C@@H]32)nc(C(F)(F)F)n1 [Example 19, N4-[(11bR)-2,3,4,6,7,11b-hexahydro-1H-pyrazino[2,1-a]isoquinolin-9-yl]-N6,N6-dimethyl-2-(trifluoromethyl)pyrimidine-4,6-diamine] | 0.0231 | 0.0076
Cc1cc(Nc2ccc3c(c2)CCN2CCNC[C@@H]32)nc(C(F)(F)F)n1 [Example 20, (11bR)-N-[6-methyl-2-(trifluoromethyl)pyrimidin-4-yl]-2,3,4,6,7,11b-hexahydro-1H-pyrazino[2,1-a]isoquinolin-9-amine] | 0.0364 | 0.0112
FC(F)(F)c1nc(Cl)cc(Nc2ccc3c(c2)CCN2CCNC[C@@H]32)n1 [Example 21, (11bR)-N-[6-chloro-2-(trifluoromethyl)pyrimidin-4-yl]-2,3,4,6,7,11b-hexahydro-1H-pyrazino[2,1-a]isoquinolin-9-amine] | 0.0264 | 0.0134
c1cnc(Nc2ccc3c(c2)CCN2CCNC[C@@H]32)nc1 [Example 22, (11bR)-N-pyrimidin-2-yl-2,3,4,6,7,11b-hexahydro-1H-pyrazino[2,1-a]isoquinolin-9-amine] | 0.537 | 3.92
Cc1cc(Nc2ccc3c(c2)CCN2CCNC[C@@H]32)nc(C)n1 [Example 23, (11bR)-N-(2,6-dimethylpyrimidin-4-yl)-2,3,4,6,7,11b-hexahydro-1H-pyrazino[2,1-a]isoquinolin-9-amine] | 0.165 | 0.457

Reference: US9828374B2, “Substituted pyrazino[2,2-a]isoquinoline derivatives” (Hoffmann-La Roche Inc., priority 2014, dated 2017)
